Values of other authors, collected in patent US8536378B2 (The Board of Trustees of the Leland Stanford Junior …, priority 2007, dated 2013).

How the values were obtained:
[1] = system: CD4 and CXCR4 receptors
[2] = system: latent HIV-1; conditions: fold more potent than prostratin
[3] = estimate in reference note 20
[4] = system: latent HIV; conditions: latently infected CD4+ T cells
[5] = compared with other phorbol esters such as PMA
[6] = system: T-lymphoblastoid CEM-SS and C-8166 cell lines; conditions: in vitro

Structure (SMILES) | downregulation of CD4 and CXCR4 receptors [1] | potency in activating latent HIV-1 relative to prostratin [2] | estimated oral bioavailability [3] [%] | CD4 receptors on cell surfaces ([1]; CEM-SS and MT-4 cell lines) | HIV gene expression / activation of latent HIV [4] | tumor-promoting activity [5] | cytotoxicity: concentration up to which no sign of cytotoxicity was observed ([6]; CEM-SS and C-8166 cell lines) [µM] | prostratin concentration at which cell viability was restored to the level of uninfected controls ([6]; HIV-infected CEM-SS and C-8166 cell lines)
CC1=C[C@H]2[C@@]3(O)[C@H](C)C[C@]4(OC(=O)Cc5ccccc5)C([C@@H]3C=C(CO)C[C@]2(O)C1=O)C4(C)C (stereo partly drawn) [DPP, 12-deoxyphorbol-13-phenylacetate] | downregulates CD4 and CXCR4 receptors at nanomolar concentrations | 20-30 fold | – | – | – | – | – | –
CC(=O)O[C@@]12C[C@@H](C)[C@@]3(O)[C@@H](C=C(CO)C[C@]4(O)C(=O)C(C)=C[C@@H]34)[C@@H]1C2(C)C [prostratin, 12-deoxyphorbol-13-acetate] | – | – | ~28 | significantly reduced | induces HIV gene expression | does not exhibit the tumor-promoting activity | > 25 | approximately 1 μM
CCCCCCCCCCCCCC(=O)O[C@@H]1[C@@H](C)[C@@]2(O)[C@@H](C=C(CO)C[C@]3(O)C(=O)C(C)=C[C@@H]23)[C@@H]2C(C)(C)[C@]12OC(C)=O [PMA, phorbol 12-myristate-13-acetate, reference compound] | – | – | – | – | activate latent HIV | – | – | –
